# Source: patent US10399971B2, “Compound for treating or preventing hyperuricemia or gout” (JIANGSU ATOM BIOSCIENCE AND PHARMACEUTICAL CO., LTD., priority 2015, dated 2019)
# Tests used:
# Type in all cases: cell-based
# [1] = biological target: T1, hURAT1 (Homo sapiens, UniProt Q96S37); test: Inhibition assay of uric acid transport in HEK293-hURAT1 transfection cell line; conditions: 500 nM, HEK293-hURAT1 transfection cell line, 14C-uric acid, average of three tests; for inhibition at 0.5 µM: read-out: Inhibitory rates of uric acid transport, ±SD (%)
# T1 sequence (Q96S37 1-553): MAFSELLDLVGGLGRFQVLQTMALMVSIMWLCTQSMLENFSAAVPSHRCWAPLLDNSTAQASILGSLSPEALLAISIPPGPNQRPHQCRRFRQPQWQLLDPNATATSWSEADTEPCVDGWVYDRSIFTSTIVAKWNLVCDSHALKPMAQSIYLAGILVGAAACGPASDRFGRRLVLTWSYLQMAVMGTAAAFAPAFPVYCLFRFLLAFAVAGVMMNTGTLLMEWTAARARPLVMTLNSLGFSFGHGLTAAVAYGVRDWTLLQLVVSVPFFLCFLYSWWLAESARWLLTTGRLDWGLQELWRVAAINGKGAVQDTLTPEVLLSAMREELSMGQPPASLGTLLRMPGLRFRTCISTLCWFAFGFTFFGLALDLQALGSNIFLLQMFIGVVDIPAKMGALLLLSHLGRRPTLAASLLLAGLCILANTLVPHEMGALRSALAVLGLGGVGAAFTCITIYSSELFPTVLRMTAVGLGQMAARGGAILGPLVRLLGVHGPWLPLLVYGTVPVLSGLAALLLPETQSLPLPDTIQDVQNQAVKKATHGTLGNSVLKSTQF
# Protocol: 2.1 Construction of a HEK293 stable cell line with high expression of hURAT1: The plasmid pCMV6-hURAT1 was transfected into HEK293 cells, then the stable strain was obtained by the G418 (final concentration 500 μg/mL) resistance screening, which is the high expression of hURAT1 transporter membrane protein.
# 2.2 To a coated 24-well plate was added 200 μL of 0.1 mg/mL poly-lysine per well and the plate was left overnight. Poly-lysine was removed from wells. The wells were cleaned thoroughly with aseptic water and dried for use.
# 2.3 To the above coated 24 well plate was added HEK293-hURAT1 stable cells (2×10^5 cells per well). The cells was cultured at 37° C. under 5% CO2 for 3 days.
# The solution was fully mixed to give HBSS buffer (pH value: 7.4). The buffer was stored at −20° C.
# 2.5 The HBSS buffer was warmed to 37° C. in a water bath. Washed cells with HBSS twice, added 160 μL of HBSS and 20 μL test compound per well. The final concentration of tested compound per well is 500 nM. The blank control well contains only 180 μL of HBSS without tested compound. The plate was placed at room temperature for 30 min.
# 2.6 To each well was added 20 μL of 50 μM ^14C-Uric acid. The plate was placed at room temperature for 20 min.
# 2.7 The solution in each well was removed and the cells in each well were washed with pre-cooled HBSS buffer. To each well was added 0.2 M NaOH to dissolve the cells. The solution containing cell fragments was collected and the right amount of scintillation liquid was added.
# The formula for calculating the inhibitory rate of uric acid transport for compounds was shown as below: […]
# [2] = tested on: human normal liver cell line WRL-68; test: Cytotoxicity test on human normal liver cell line WRL-68 (Alamar Blue); conditions: WRL68, WRL-68 cells, 120 h incubation, cell viability, read-out: half inhibitory concentration (IC50) against WRL-68
# Protocol: (§1) 2.1 The normal liver cell lines L-02 and WRL-68 were cultured with DMEM culture medium (containing 10% of fetal bovine serum, 100 U/mL of penicillin and 0.1 mg/mL of streptomycin) in an incubator under 5% CO2 at 37° C. until the cell density was about 90%, respectively.
# (§2) 2.3 Tested compounds and benzbromarone at different concentration gradients were prepared by using the DMEM culture medium and added into wells at 100 μL/well as compounds wells. The DMEM culture medium was added into wells at 100 μL/well without tested compound as negative control wells.
# (§3) This 10× Alamar Blue solution was diluted into 1× Alamar Blue solution with phenol red free DMEM culture medium before use.
# (§4) 2.5 The cells were washed with PBS (0.1 M, pH=7.4) twice. The Alamar Blue solution was added into wells at 100 μL/well. 100 μL of Alamar Blue solution was added into wells without cells to serve as blank control wells. The 96-well plate was placed in an incubator under 5% CO2 at 37° C. for 3 h. Each concentration of compound was repeated three times during the test.
# (§5) The fluorescence value of the cells containing compound is the F(test compound); the fluorescence value of the cells without compound as blank control is the F(blank control); the fluorescent value of the cells from negative control group is F(negative control). The average value and standard deviation of cell viability of three repeated concentrations was calculated by the following formula: […]
# (§6) 2.7 The half inhibitory concentration (IC50) of the compound for the cells L-02 and WRL-68 was obtained from the cell viability by Prism Graph software.
# [3] = tested on: human normal liver cell line L-02; test: Cytotoxicity test on human normal liver cell line L-02 (Alamar Blue); conditions: L02, L-02 cells, 120 h incubation, cell viability, read-out: half inhibitory concentration (IC50) against L-02
# Protocol: as §1, §2, §3, §4, §5, §6
Structure (SMILES),"Inhibitory rates of uric acid transport, ±SD (%) [1]",inhibition at 0.5 µM [1],IC50 [2],IC50 [3]
"[2H]c1ccc2nc(CC)c(C(=O)c3cc(Br)c(O)c(Br)c3)n2c1 [Compound 69, (6-deuterium-2-ethylimidazo[1,2-a]pyridine-3-yl)(3,5-dibromo-4-hydroxyphenyl)methanone]",71.10 ± 2.50%,,,
"CCc1nc2ccc(C)cn2c1C(=O)c1cc(Br)c(O)c(Br)c1 [Compound 30, (3,5-dibromo-4-hydroxyphenyl)(2-ethyl-6-methylimidazo[1,2-a]pyridine-3-yl)methanone]",,68 ± 1.49%,,
"CCc1nc2ccccn2c1C(=O)c1cc(I)c(O)c(I)c1 [Compound 5, (2-ethylimidazo[1,2-a]pyridine-3-yl)(4-hydroxy-3,5-diiodophenyl)methanone]",,63 ± 3.33%,> 100 µM,> 100 µM
"CCc1nc2ccccn2c1C(=O)c1cc(Br)c(O)c(Br)c1 [Compound 4, (3,5-dibromo-4-hydroxyphenyl)(2-ethylimidazo[1,2-a]-pyridin-3-yl)methanone]",,71.7 ± 1.84%,> 100 µM,> 100 µM
"CCCc1nc2ccccn2c1C(=O)c1cc(Br)c(O)c(Br)c1 [Compound 41, (3,5-dibromo-4-hydroxyphenyl)(2-propylimidazo[1,2-a]-pyridine-3-yl)methanone]",,55.5 ± 1.02%,,
"CCc1nc2ccc(F)cn2c1C(=O)c1cc(F)c(O)c(I)c1 [Compound 51, (2-ethyl-6-fluoroimidazo[1,2-a]pyridin-3-yl)(3-fluoro-4-hydroxy-5-iodophenyl)methanone]",,61.3 ± 1.1%,> 100 µM,> 100 µM
"CCc1nc2ccccn2c1C(=O)c1cc(Cl)c(O)c(Br)c1 [Compound 45, (3-bromo-5-chloro-4-hydroxyphenyl)(2-ethylimidazo[1,2-a]-pyridin-3-yl)methanone]",,62.9 ± 3.34%,> 100 µM,> 100 µM
"CCc1nc2ccccn2c1C(=O)c1cc(Cl)c(O)c(I)c1 [Compound 9, (3-chloro-4-hydroxy-5-iodophenyl)(2-ethylimidazo[1,2-a]-pyridin-3-yl)methanone]",,60.6 ± 0.82%,> 100 µM,> 100 µM
"CCc1nc2ccc(F)cn2c1C(=O)c1cc(Cl)c(O)c(Br)c1 [Compound 18, (3-bromo-5-chloro-4-hydroxyphenyl)(2-ethyl-6-fluoroimidazo[1,2-a]pyridine-3-yl)methanone]",,65.4 ± 0.71%,> 100 µM,> 100 µM
"CCc1nc2ccccn2c1C(=O)c1cc(C)c(O)c(I)c1 [Compound 12, (2-ethylimidazo[1,2-a]pyridine-3-yl)(4-hydroxy-3-iodo-5-methylphenyl)methanone]",,56.24 ± 0.12%,,
"CCc1nc2ccccn2c1C(=O)c1cc(I)c(O)c(C#N)c1 [Compound 39, 5-(2-ethylimidazo[1,2-a]pyridine-3-carbonyl)-2-hydroxy-3-iodobenzonitrile]",,64.1 ± 2.25%,,
"CCc1nc2ccccn2c1C(=O)c1cc(Br)c(O)c(C(F)(F)F)c1 [Compound 29, (3-bromo-4-hydroxy-5-(trifluoromethyl)phenyl)-(2-ethylimidazo[1,2-a]pyridine-3-yl)methanone]",,64.35 ± 0.12%,,
"CCc1nc2ccccn2c1C(=O)c1cc(Br)c(O)c(C#N)c1 [Compound 38, 3-bromo-5-(2-ethylimidazo[1,2-a]pyridine-3-carbonyl)-2-hydroxybenzonitrile]",,62.4 ± 0.72%,,
"CCc1nc2ccccn2c1C(=O)c1cc(Br)c(O)c(I)c1 [Compound 11, (3-bromo-4-hydroxy-5-iodophenyl)(2-ethylimidazo[1,2-a]-pyridine-3-yl)methanone]",,63.5 ± 0.95%,,
"CCc1nc2ccc(F)cn2c1C(=O)c1cc(Cl)c(O)c(I)c1 [Compound 19, (3-chloro-4-hydroxy-5-iodophenyl)(2-ethyl-6-fluoroimidazo[1,2-a]pyridine-3-yl)methanone]",,68.8 ± 2.83%,,
